Patent publication US20260240879A1, “TOPICAL PALA THERAPY FOR CANCER” (priority 2023, published 2026)

Experiments:
UVB-induced skin tumors = assay: Immunostaining of excised skin tumors (cell cycle markers, antimicrobial peptides, immune cells); assay type: in vivo, SKH1-Elite mice
B16 melanoma = B16 melanoma orthotopic xenograft model; assay type: in vivo,  female mice
Procedure: FIG. 17: Topical PALA treatment retards melanoma growth and sensitizes melanoma to anti-checkpoint inhibitor therapy in a B16 melanoma orthotopic xenograft model. C57BU/6 female mice (n=4-5/group) were injected subcutaneously bilaterally with B16 melanoma cells (10^5 cells/flank; 8-10 injections total). Tumor volume was measured by caliper every 2-3 days by personnel blinded to treatment group. Data from palpable tumors are graphed as mean±SEM. […] On day 12 post-injection, mice were treated topically with either vehicle (AP0536/29/02) or 1% (w/w) PALA (AP0536/29/02) daily for 12 days. […] On day 7 post-injection, mice were treated topically with either vehicle (AP0536/29/02) or 2% (w/w) PALA (AP0536/29/02) daily for 5 days. Tumors were harvested on day 14 post-injection and tumor lysates analyzed by immunoblot for PD-L1 protein levels and quantified by image densitometry using ImageJ relative to tubulin levels (loading control). Mean±SEM graphed. C. […] On day 7 post-injection, mice were treated topically with either vehicle (AP0536/29/02) or 2% (w/w) PALA (AP0536/29/02) daily for 5 days. Mice were also treated with either isotype or anti-PD-L1/atezolizumab antibodies (100 μg/mouse) every 48 hours intraperitoneally from day 7 to day 19. Significant differences were determined by 2-way ANOVA with Dunnett's multiple comparison test. ***p<0.001

[1] = molecular target: T1, aspartate transcarbamylase (Homo sapiens, UniProt P27708); assay: Aspartate transcarbamylase activity in lysates of PALA-treated fibroblasts; assay type: cell-based; conditions: at doses that induce maximal immune stimulation, 16 h
T1 construct: endogenous in cells; host or cells: normal human dermal fibroblasts
Procedure: A. Bactericidal activity of normal human dermal fibroblasts stimulated by PALA treatment. Cells stimulated for 16 h with the indicated concentration of PALA. Conditioned supernatants added to log phase cultures of methicillin-resistant Staphylococcus aureus (MRSA) for 2 h and viable bacterial determined by selective plating. Mean±SD graphed. B. PALA-stimulated production of antimicrobial peptides in normal human dermal fibroblasts. Cells were stimulated as in A. and supernatants assayed by ELISA for human β-defensin 2 (HBD2) and human β-defensin 3 (HBD3). Mean±SD graphed. C. […] Cell lysates from the cells shown in A. were assayed for their ability to catalyze the formation of carbamyl aspartate (CA) in vitro. Percent change in CA levels graphed; mean±SD. […] D. Average number of tumors per mouse at the end of the treatment period (mean±SEM graphed). D. Mice treated for 10 weeks with vehicle (Aquaphor), 1%, 2%, or 5% PALA in Aquaphor. E. Mice treated for 4 weeks with vehicle (AP0536/29/02), 2% (w/w) PALA (AP0536/29/02), or 4% (w/w) PALA (AP0536/29/02).

[2] = mouse, in vivo
Procedure: The topical formulations of 2% PALA/50% acetone/10% glycerol, 5% imiquimod (IMQ), 5% 5-FU (5-FU), vehicle (50% acetone/10% glycerol) control, and Aquaphor were applied (~0.05 g/mouse) daily to the dorsal skin of SKH1-Elite female mice (8 weeks of age; n=5/group) for 7 days. […] Mice were monitored daily for weight change, skin appearance, and signs of distress. […] At harvest, spleen weights and colon lengths were measured.

[3] = molecular target: aspartate transcarbamylase (Escherichia coli, UniProt P0A786); conditions: transition-state analog inhibitor; cited from earlier work
[4] = test system: UVB-induced NMSC (AK lesions and SCC tumors); assay: UVB-induced NMSC mouse model: tumor number, area, growth phenotype and grade; conditions: for total tumors at endpoint: vehicle 12.5±2.4
[5] = Toxicity markers in UVB-tumor-bearing mice under topical treatment (weight, SAA, colon length, fecal LCN2)
Procedure: Serum amyloid A levels were measured in plasma samples using the Mouse SAA ELISA kit (E-90SAA, Immunology Consultants Laboratory, Inc.) according to manufacturer's instructions. Lipocalin-2 (LCN2) was quantified from pre-weighed stool samples homogenized in 0.5 mL PBS using the Mouse Lipocalin-2/NGAL DuoSet ELISA (DY1857) and DuoSet Ancillary Reagent Kit 2 (DY008, R&D Systems).

[6] = 2% (w/w) PALA (AP0536/29/02), daily, 4 weeks
[7] = individual tumors, PALA n = 48, vehicle 7.3%

T1 sequence (P27708 2-2225 limits assumed): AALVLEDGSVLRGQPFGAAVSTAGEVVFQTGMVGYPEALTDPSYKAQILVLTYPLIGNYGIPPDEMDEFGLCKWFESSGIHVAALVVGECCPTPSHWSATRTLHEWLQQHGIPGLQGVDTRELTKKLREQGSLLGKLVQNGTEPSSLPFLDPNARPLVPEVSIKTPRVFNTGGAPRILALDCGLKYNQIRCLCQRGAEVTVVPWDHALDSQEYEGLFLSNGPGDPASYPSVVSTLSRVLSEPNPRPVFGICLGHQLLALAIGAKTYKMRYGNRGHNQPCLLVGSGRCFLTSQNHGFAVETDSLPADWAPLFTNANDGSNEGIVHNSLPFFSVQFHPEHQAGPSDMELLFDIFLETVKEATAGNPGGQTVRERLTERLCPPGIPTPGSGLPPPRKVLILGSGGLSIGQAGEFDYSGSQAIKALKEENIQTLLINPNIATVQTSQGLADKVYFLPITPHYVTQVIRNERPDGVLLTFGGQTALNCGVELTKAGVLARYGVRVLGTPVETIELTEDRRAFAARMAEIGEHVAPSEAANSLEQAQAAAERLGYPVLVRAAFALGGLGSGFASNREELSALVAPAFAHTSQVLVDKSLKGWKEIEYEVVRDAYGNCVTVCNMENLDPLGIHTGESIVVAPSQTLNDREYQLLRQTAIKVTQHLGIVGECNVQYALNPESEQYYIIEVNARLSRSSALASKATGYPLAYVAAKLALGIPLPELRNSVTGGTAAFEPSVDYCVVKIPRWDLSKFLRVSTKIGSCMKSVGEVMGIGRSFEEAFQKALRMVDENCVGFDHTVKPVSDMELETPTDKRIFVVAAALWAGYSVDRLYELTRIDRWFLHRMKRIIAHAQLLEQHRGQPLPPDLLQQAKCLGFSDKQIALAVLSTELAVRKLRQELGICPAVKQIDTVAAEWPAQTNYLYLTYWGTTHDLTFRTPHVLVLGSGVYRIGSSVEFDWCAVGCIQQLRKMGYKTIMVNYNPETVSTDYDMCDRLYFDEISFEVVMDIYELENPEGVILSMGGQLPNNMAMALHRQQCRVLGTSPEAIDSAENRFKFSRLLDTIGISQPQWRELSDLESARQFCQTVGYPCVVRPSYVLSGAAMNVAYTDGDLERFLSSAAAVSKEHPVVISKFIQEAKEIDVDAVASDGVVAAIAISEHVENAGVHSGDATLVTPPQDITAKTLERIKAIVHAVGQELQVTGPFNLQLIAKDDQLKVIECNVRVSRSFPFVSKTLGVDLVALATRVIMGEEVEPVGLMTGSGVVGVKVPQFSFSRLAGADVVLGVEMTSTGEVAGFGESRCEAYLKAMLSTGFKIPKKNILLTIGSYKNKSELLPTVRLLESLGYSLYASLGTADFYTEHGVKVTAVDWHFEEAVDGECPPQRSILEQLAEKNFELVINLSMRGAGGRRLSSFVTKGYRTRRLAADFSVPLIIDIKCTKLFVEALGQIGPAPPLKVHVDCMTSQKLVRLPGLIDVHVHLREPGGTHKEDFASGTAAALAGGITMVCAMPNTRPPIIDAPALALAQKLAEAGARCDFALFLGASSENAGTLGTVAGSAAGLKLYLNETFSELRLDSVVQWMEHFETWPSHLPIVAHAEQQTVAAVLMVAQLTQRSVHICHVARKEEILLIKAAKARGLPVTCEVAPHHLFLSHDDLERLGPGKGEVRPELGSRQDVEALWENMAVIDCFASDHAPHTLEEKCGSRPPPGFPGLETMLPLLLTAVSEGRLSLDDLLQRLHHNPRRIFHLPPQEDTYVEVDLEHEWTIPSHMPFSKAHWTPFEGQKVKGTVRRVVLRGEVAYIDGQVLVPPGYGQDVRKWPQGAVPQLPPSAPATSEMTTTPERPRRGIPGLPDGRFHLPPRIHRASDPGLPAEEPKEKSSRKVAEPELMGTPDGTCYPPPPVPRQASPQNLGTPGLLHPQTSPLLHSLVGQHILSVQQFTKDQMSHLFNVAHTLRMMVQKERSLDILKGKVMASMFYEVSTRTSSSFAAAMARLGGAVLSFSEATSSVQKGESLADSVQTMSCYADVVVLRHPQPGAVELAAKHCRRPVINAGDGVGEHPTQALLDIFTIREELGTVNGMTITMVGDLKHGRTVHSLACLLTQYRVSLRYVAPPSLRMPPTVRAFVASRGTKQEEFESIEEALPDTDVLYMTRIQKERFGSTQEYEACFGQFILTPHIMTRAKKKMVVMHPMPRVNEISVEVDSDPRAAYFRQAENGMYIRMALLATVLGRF
aspartate transcarbamylase (Escherichia coli, UniProt P0A786), sequence (P0A786 2-311): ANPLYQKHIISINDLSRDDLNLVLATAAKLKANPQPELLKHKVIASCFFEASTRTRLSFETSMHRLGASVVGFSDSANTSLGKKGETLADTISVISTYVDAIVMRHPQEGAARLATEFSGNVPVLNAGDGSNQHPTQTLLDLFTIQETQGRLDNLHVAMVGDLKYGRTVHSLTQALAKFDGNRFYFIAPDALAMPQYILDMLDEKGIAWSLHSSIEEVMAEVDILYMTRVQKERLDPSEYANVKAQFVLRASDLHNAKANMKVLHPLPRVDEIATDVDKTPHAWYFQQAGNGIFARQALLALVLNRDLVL

## O=C(O)CC(NC(=O)CP(=O)(O)O)C(=O)O [PALA, N-phosphonacetyl-L-aspartate]
UVB-induced skin tumors; PALA compared to vehicle-treated controls
  CD8+ cytotoxic T cells in tumors: elevated numbers
UVB-induced skin tumors; PALA relative to vehicle-treated controls
  F4/80+ macrophages in tumors: increased numbers
UVB-induced skin tumors; PALA vs vehicle
  LL-37+ cells in tumor samples: significantly increased
  numbers of MPO+ cells (neutrophils) in tumors: the same
  overall number of CD3+ T cells within tumor tissue: the same
  total area of DefB14 staining within tumors: not different
UVB-induced skin tumors; excised tumors, 2% PALA, vehicle 3.1%, p=0.0067
  phospho-histone H3+ cells: 4.9%
UVB-induced skin tumors; excised tumors, 2% PALA, vehicle 10.4%, p=0.005
  Ki67+ cells per tumor: 24.6%
UVB-induced skin tumors; excised tumors, 2% PALA, vehicle 48.9%, p=0.0329
  cyclin D1+ cells per tumor: 39.4%
UVB-induced skin tumors; excised tumors, PALA vs vehicle
  cyclin B1+ or cyclin A2+ cell populations: No differences
B16 melanoma; 1% (w/w) PALA (AP0536/29/02), topical daily for 12 days from day 12 post-injection
  tumor growth (tumor volume): retards tumor growth
B16 melanoma; 2% (w/w) PALA (AP0536/29/02), topical daily for 5 days
  PD-L1 protein levels in tumor lysates: reduces expression of the checkpoint inhibitor PD-L1
B16 melanoma; 2% (w/w) PALA daily for 5 days plus anti-PD-L1/atezolizumab 100 μg/mouse i.p. every 48 hours
  response to anti-PD-L1 therapy: sensitizes B16 melanoma to anti-PD-L1 therapy
[1]
  reduction of aspartate transcarbamylase enzyme activity (carbamyl aspartate formation): ~ 25%
[2]
  SAA levels on day 7: no changes
  colon length / gross intestinal pathology on day 7: no changes
  skin histology on day 7: no changes
  skin irritation apparent (day): no skin irritation
  spleen weight on day 7: no changes
[3]
  potency as inhibitor of aspartate transcarbamylase: nanomolar potency
[4]; 1% PALA in 50% acetone/10% glycerol, daily topical, 10 weeks
  total tumors at endpoint: 11.7±3.8
[4]; 1% PALA, daily topical, 10 weeks, vehicle 286.4%±62.6
  average tumor burden, % of original size at endpoint: 275.0%±84.7
[4]; 1%, 2%, 5% PALA in Aquaphor 10 weeks, 4% (w/w) PALA 4 weeks
  shape of dose-response, average number of tumors per mouse at end of treatment: U-shaped dose-response curves
[4]; [6]
  growth profile of individual tumors: lower percentage of continually growing tumors
  mean tumor surface area per tumor (average tumor size): significantly smaller average tumor size than either vehicle or 5% IMQ treated mice
[4]; 2% (w/w) PALA (AP0536/29/02), daily, 4 weeks, vs vehicle or 5% IMQ
  endpoint tumor grade: fewer squamous cell carcinoma (SCC) and SCC in situ tumors
[4]; 2% PALA in 50% acetone/10% glycerol, daily topical, 10 weeks
  total tumors at endpoint: 3.83±0.6
[4]; 2% PALA or 5% IMQ, daily, 4 weeks
  tumor levels of interleukin-1β: elevated
[4]; 2% PALA, daily topical, 10 weeks, vehicle 4.4, p=0.003
  mean tumor cross-sectional area, endpoint value: 2.4 mm^2
[4]; 2% PALA, daily topical, 10 weeks, vehicle 197.1, p<0.0001
  mean surface tumor area, endpoint value: 30.3 mm^2
[4]; 2% PALA, daily topical, 10 weeks, vehicle 286.4%±62.6, 252.3%±34.3
  average tumor burden, % of original size at endpoint: 99.2%±20.5
[4]; 2% PALA, daily, 4 weeks, compared with 5% IMQ
  tumor levels of interferon-al: elevated only in 2% PALA treated mice
[4]; 5% PALA in 50% acetone/10% glycerol, daily topical, 10 weeks
  total tumors at endpoint: 6.20±1.8
[4]; 5% PALA, daily topical, 10 weeks, vehicle 286.4%±62.6
  average tumor burden, % of original size at endpoint: 91.6%±13.4
[4]; 10 weeks of daily topical treatment
  concentrations demonstrating anti-tumor activity: ≥ 2%
[4]; PALA treated tumors, 10 weeks
  tumors shrinking after an initial period of growth or continually reducing in size: 97.9%
[4]; PALA-treated mice, vehicle 31%, p<0.001
  proportion of AK/SCC in situ and benign lesions: 62%
[4]; PALA-treated mice, vehicle 69%, p<0.0001
  prevalence of well differentiated SCC and poorly differentiated SCC: 38%
[4]; excised tumors, 2% PALA daily 10 weeks, vehicle 25
  Total Tumor Number: Poorly Differentiated SCC: 6
[4]; excised tumors, vehicle 0
  Total Tumor Number: Benign/ Hyperplastic: 8
[4]; excised tumors, vehicle 28
  Total Tumor Number: AK/SCC in situ: 23
[4]; excised tumors, vehicle 37
  Total Tumor Number: Well Differentiated SCC: 12
[4]; [7]
  Tumor Growth Outcome: Same, %: 0 (0%)
  Tumor Growth Outcome: Smaller, %: 4.1%
  Tumor Growth Phenotype: No Change, %: 0 (0%)
[4]; individual tumors, PALA n = 48, vehicle 17.0%
  Tumor Growth Phenotype: Continual Shrinkage, %: 29.1%
[4]; individual tumors, PALA n = 48, vehicle 26.8%
  Tumor Growth Outcome: Resolved, %: 83.3%
[4]; individual tumors, PALA n = 48, vehicle 29.2%
  Tumor Growth Phenotype: Grow then Shrink, %: 68.7%
[4]; individual tumors, PALA n = 48, vehicle 46.3%
  Tumor Growth Phenotype: Continual Growth, %: 2.0%
[4]; individual tumors, PALA n = 48, vehicle 58.5%
  Tumor Growth Outcome: Larger, %: 12.5%
[4]; reformulated 2% (w/v) PALA (AP0536/29/02), daily, 6 weeks
  tumor burden and total tumor area: effective in reducing tumor burden and total tumor area
[4]; vehicle 0%
  Tumor Prevalence: Benign/ Hyperplastic: 13%
[4]; vehicle 0 (0)
  Tumor Area: Benign/ Hyperplastic, mean (SEM): 1.4 (0.3)
  Tumors / Mouse: Benign/ Hyperplastic, mean (SEM): 0.5 (0.6)
[4]; vehicle 1.5 (0.7)
  Tumor Cross Sectional Area: AK/SCC in situ, mean (SEM): 1.1 (1.0) mm^2
[4]; vehicle 2.0 (1.6)
  Tumors / Mouse: Poorly Differentiated SCC, mean (SEM): 0.5 (0.9)
[4]; vehicle 2.3 (2.1)
  Tumors / Mouse: AK/SCC in situ, mean (SEM): 1.9 (1.2)
[4]; vehicle 3.0 (1.8)
  Tumors / Mouse: Well Differentiated SCC, mean (SEM): 1.0 (1.1)
[4]; vehicle 3.4 (6.6)
  Tumor Area: AK/SCC in situ, mean (SEM): 2.3 (2.0)
[4]; vehicle 3.7 (2.0)
  Tumor Cross Sectional Area: Well Differentiated SCC, mean (SEM): 3.1 (2.2) mm^2
[4]; vehicle 9.2 (5.8)
  Tumor Cross Sectional Area: Poorly Differentiated SCC, mean (SEM): 9.8 (6.4) mm^2
[4]; vehicle 10.7 (18.0)
  Tumor Area: Well Differentiated SCC, mean (SEM): 7.5 (4.5)
[4]; vehicle 28%
  Tumor Prevalence: Poorly Differentiated SCC: 13%
[4]; vehicle 31%
  Tumor Prevalence: AK/SCC in situ: 49%
[4]; vehicle 41%
  Tumor Prevalence: Well Differentiated SCC: 25%
[4]; vehicle 59.5 (77.3)
  Tumor Area: Poorly Differentiated SCC, mean (SEM): 62.6 (70.0)
[4]; vehicle n/a
  Tumor Cross Sectional Area: Benign/ Hyperplastic, mean (SEM): 1.7 (2.0) mm^2
[5]; 1, 2 or 5% (w/v) PALA in 50% acetone/10% glycerol, daily topical, 10 weeks
  skin irritation or weight loss: no apparent skin irritation or weight loss
[5]; 1, 2 or 5% (w/v) PALA vs vehicle, daily topical, 10 weeks, trends of higher SAA at 1% and 5%
  circulating levels of serum amyloid A (SAA) at endpoint: No significant differences
[5]; 1, 2 or 5% (w/v) PALA, daily topical, 10 weeks
  gross colon pathology and colon lengths at harvest: None of the mice had any apparent gross colon pathology or significant differences in colon lengths
[5]; 2% (w/w) PALA (AP0536/29/02) vs 5% 5-FU and 5% IMQ, daily, 4 weeks
  change in weight from the start of treatment: maintain weight is better than 5-FU or IMQ treated mice
[5]; 2% PALA, daily topical, 10 weeks
  weight, SAA levels, gross intestinal pathology, LCN2 levels vs vehicle: no significant differences
[5]; 5% PALA, daily topical, 10 weeks, vehicle 18.1±6.0, p=0.032
  fecal lipocalin-2 (LCN2) at endpoint: 186.8±121.1
[5]; 10 weeks of daily treatment
  concentration up to which topical PALA is well tolerated: up to 5 % (w/v)
